Results: patent US20090118274A1, “MONOCYCLIC AMINOPROPYL TETRAHYDRO-PYRAZOLO-PYRIDINE MODULATORS OF CATHEPSIN S” (priority 2007, published 2009)
Like-named read-outs stand apart in the source and are kept apart here.

Target: T1, Recombinant human cathepsin S (CatS) (Homo sapiens, UniProt P25774)
T1 construct: made in house
Experiment: Recombinant human cathepsin S (CatS) fluorogenic substrate inhibition assay
Assay type: biochemical
Method: Recombinant human cathepsin S (CatS) was expressed in the baculovirus system and purified in one step with a thiopropyl-sepharose column. […] The assay is run in 150 mM sodium acetate pH 5.0 containing 1.5 mM DTT and 150 mM NaCl. […] Measurements are taken every min for 20 min. The rate is calculated from the slope of the increase in fluorescence and the percent inhibition is calculated from this.

[1] = average of results obtained, substrate Z-Valine-Valine-Arginine-AMC 10 μM, pH 5.0, read-out: CatS IC50

T1 sequence (P25774 115-331): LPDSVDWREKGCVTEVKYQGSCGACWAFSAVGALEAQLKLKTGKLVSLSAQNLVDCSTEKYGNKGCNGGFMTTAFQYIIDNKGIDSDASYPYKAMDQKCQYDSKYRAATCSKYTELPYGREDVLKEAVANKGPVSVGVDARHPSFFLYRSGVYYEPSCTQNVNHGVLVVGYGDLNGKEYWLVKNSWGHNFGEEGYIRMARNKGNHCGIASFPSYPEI

Compound | IC50 [1] [nM] | IC50 [nM]
CS(=O)(=O)N1CCc2c(c(-c3ccc(C(F)(F)F)c(CNC(=O)c4ccc(F)cc4)c3)nn2CC(O)CN2CCCCC2)C1 (centres unmarked) [Example 24, 4-Fluoro-N-{5-[1-(2-hydroxy-3-piperidin-1-yl-propyl)-5-methanesulfonyl-4,5,6,7-tetrahydro-1H-pyrazolo[4,3-c]pyridin-3-yl]-2-trifluoromethyl-benzyl}-benzamide] | 250 | 
CS(=O)(=O)N1CCc2c(c(-c3ccc(C(F)(F)F)c(CNC(=O)c4cccc(F)c4)c3)nn2CC(O)CN2CCCC2)C1 (centres unmarked) [Example 215, 3-Fluoro-N-{5-[1-(2-hydroxy-3-pyrrolidin-1-yl-propyl)-5-methanesulfonyl-4,5,6,7-tetrahydro-1H-pyrazolo[4,3-c]pyridin-3-yl]-2-trifluoromethyl-benzyl}-benzamide] | 580 | 
CS(=O)(=O)N1CCc2c(c(-c3ccc(C(F)(F)F)c(CNC(=O)c4ccccc4)c3)nn2CC(O)CN2CCCC2)C1 (centres unmarked) [Example 56, N-{5-[1-(2-Hydroxy-3-pyrrolidin-1-yl-propyl)-5-methanesulfonyl-4,5,6,7-tetrahydro-1H-pyrazolo[4,3-c]pyridin-3-yl]-2-trifluoromethyl-benzyl}-benzamide] | 250 | 
CS(=O)(=O)N1CCc2c(c(-c3ccc(C(F)(F)F)c(CNC(=O)c4cccc(Cl)c4)c3)nn2CC(O)CN2CCCC2)C1 (centres unmarked) [Example 166, 3-Chloro-N-{5-[1-(2-hydroxy-3-pyrrolidin-1-yl-propyl)-5-methanesulfonyl-4,5,6,7-tetrahydro-1H-pyrazolo[4,3-c]pyridin-3-yl]-2-trifluoromethyl-benzyl}-benzamide] | 460 | 
CC(=O)NCC1CCN(CC(O)Cn2nc(-c3ccc(C(F)(F)F)c(CNC(=O)C=C(C)C)c3)c3c2CCN(S(C)(=O)=O)C3)CC1 (centres unmarked) [Example 267, 3-Methyl-but-2-enoic acid 5-(1-{3-[4-(acetylamino-methyl)-piperidin-1-yl]-2-hydroxy-propyl}-5-methanesulfonyl-4,5,6,7-tetrahydro-1H-pyrazolo[4,3-c]pyridin-3-yl)-2-trifluoromethyl-benzylamide] |  | 80
CN(C)C1CCN(CC(O)Cn2nc(-c3ccc(Cl)c(CNC(=O)c4ccc(F)cc4)c3)c3c2CCN(S(C)(=O)=O)C3)CC1 (centres unmarked) [Example 85, N-(2-Chloro-5-{1-[3-(4-dimethylamino-piperidin-1-yl)-2-hydroxy-propyl]-5-methanesulfonyl-4,5,6,7-tetrahydro-1H-pyrazolo[4,3-c]pyridin-3-yl}-benzyl)-4-fluoro-benzamide] | 450 | 
CS(=O)(=O)N1CCc2c(c(-c3ccc(C(F)(F)F)c(CNC(=O)c4ccc(Cl)cc4)c3)nn2CC(O)CN2CCCC2)C1 (centres unmarked) [Example 224, 4-Chloro-N-{5-[1-(2-hydroxy-3-pyrrolidin-1-yl-propyl)-5-methanesulfonyl-4,5,6,7-tetrahydro-1H-pyrazolo[4,3-c]pyridin-3-yl]-2-trifluoromethyl-benzyl}-benzamide] | 730 | 
CCOC(=O)C1CCN(CC(O)Cn2nc(-c3ccc(C(F)(F)F)c(CNC(=O)c4ccc(F)cc4)c3)c3c2CCN(S(C)(=O)=O)C3)CC1 (centres unmarked) [Example 103, 1-[3-(3-{3-[(4-Fluoro-benzoylamino)-methyl]-4-trifluoromethyl-phenyl}-5-methanesulfonyl-4,5,6,7-tetrahydro-pyrazolo[4,3-c]pyridin-1-yl)-2-hydroxy-propyl]-piperidine-4-carboxylic acid ethyl ester] | 30 | 
CC(C)CC(=O)NCc1cc(-c2nn(CC(O)CN3CCC(O)CC3)c3c2CN(S(C)(=O)=O)CC3)ccc1C(F)(F)F (centres unmarked) [Example 245, N-(5-{1-[2-Hydroxy-3-(4-hydroxy-piperidin-1-yl)-propyl]-5-methanesulfonyl-4,5,6,7-tetrahydro-1H-pyrazolo[4,3-c]pyridin-3-yl}-2-trifluoromethyl-benzyl)-3-methyl-butyramide] | 270 | 
CS(=O)(=O)N1CCc2c(c(-c3ccc(Cl)c(CNC(=O)c4ccc(F)cc4)c3)nn2CC(O)CN2CCCC(C(N)=O)C2)C1 (centres unmarked) [Example 81, 1-[3-(3-{4-Chloro-3-[(4-fluoro-benzoylamino)-methyl]-phenyl}-5-methanesulfonyl-4,5,6,7-tetrahydro-pyrazolo[4,3-c]pyridin-1-yl)-2-hydroxy-propyl]-piperidine-3-carboxylic acid amide] | 170 | 
CS(=O)(=O)N1CCc2c(c(-c3ccc(Cl)c(COCc4ccccc4)c3)nn2CCCN2CCCC2)C1 [Example 71, 3-(3-Benzyloxymethyl-4-chloro-phenyl)-5-methanesulfonyl-1-(3-pyrrolidin-1-yl-propyl)-4,5,6,7-tetrahydro-1H-pyrazolo[4,3-c]pyridine] | 1950 | 
CC(C)CC(=O)NCc1cc(-c2nn(CC(O)CN3CCC(O)C3)c3c2CN(S(C)(=O)=O)CC3)ccc1C(F)(F)F (centres unmarked) [Example 246, N-(5-{1-[2-Hydroxy-3-(3-hydroxy-pyrrolidin-1-yl)-propyl]-5-methanesulfonyl-4,5,6,7-tetrahydro-1H-pyrazolo[4,3-c]pyridin-3-yl}-2-trifluoromethyl-benzyl)-3-methyl-butyramide] | 430 | 
CS(=O)(=O)N1CCc2c(c(-c3ccc(C(F)(F)F)c(CNC(=O)c4ccc(F)cc4)c3)nn2CC(O)CN2CCCC(O)C2)C1 (centres unmarked) [Example 92, 4-Fluoro-N-(5-{1-[2-hydroxy-3-(3-hydroxy-piperidin-1-yl)-propyl]-5-methanesulfonyl-4,5,6,7-tetrahydro-1H-pyrazolo[4,3-c]pyridin-3-yl}-2-trifluoromethyl-benzyl)-benzamide] | 170 | 
CS(=O)(=O)N1CCc2c(c(-c3ccc(C(F)(F)F)c(CNS(=O)(=O)c4ccc(F)cc4)c3)nn2CC(O)CN2CCCC2)C1 (centres unmarked) [Example 194, 4-Fluoro-N-{5-[1-(2-hydroxy-3-pyrrolidin-1-yl-propyl)-5-methanesulfonyl-4,5,6,7-tetrahydro-1H-pyrazolo[4,3-c]pyridin-3-yl]-2-trifluoromethyl-benzyl}-benzenesulfonamide] | 4900 | 
C/N=c1/ccccn1CC(O)Cn1nc(-c2ccc(Cl)c(CNC(=O)c3ccc(F)cc3)c2)c2c1CCN(S(C)(=O)=O)C2 (centres unmarked) [Example 221, N-(2-Chloro-5-{1-[2-hydroxy-3-(2-methylimino-2H-pyridin-1-yl)-propyl]-5-methanesulfonyl-4,5,6,7-tetrahydro-1H-pyrazolo[4,3-c]pyridin-3-yl}-benzyl)-4-fluoro-benzamide] | 670 | 
CS(=O)(=O)N1CCc2c(c(-c3ccc(C(F)(F)F)c(CNC(=O)c4cccc(C#N)c4)c3)nn2CC(O)CN2CCCC2)C1 (centres unmarked) [Example 159, 3-Cyano-N-{5-[1-(2-hydroxy-3-pyrrolidin-1-yl-propyl)-5-methanesulfonyl-4,5,6,7-tetrahydro-1H-pyrazolo[4,3-c]pyridin-3-yl]-2-trifluoromethyl-benzyl}-benzamide] | 290 | 
CS(=O)(=O)N1CCc2c(c(-c3ccc(C(F)(F)F)c(CNC(=O)c4ccc(F)cc4)c3)nn2CC(O)CN2CCC(O)CC2)C1 (centres unmarked) [Example 25, 4-Fluoro-N-(5-{1-[2-hydroxy-3-(4-hydroxy-piperidin-1-yl)-propyl]-5-methanesulfonyl-4,5,6,7-tetrahydro-1H-pyrazolo[4,3-c]pyridin-3-yl}-2-trifluoromethyl-benzyl)-benzamide] | 170 | 
CS(=O)(=O)N1CCc2c(c(-c3ccc(C(F)(F)F)c(CNC(=O)c4ccccc4)c3)nn2CC(O)CN2CCC3(CCNC3=O)CC2)C1 (centres unmarked) [Example 145, N-(5-{1-[2-Hydroxy-3-(1-oxo-2,8-diaza-spiro[4.5]dec-8-yl)-propyl]-5-methanesulfonyl-4,5,6,7-tetrahydro-1H-pyrazolo[4,3-c]pyridin-3-yl}-2-trifluoromethyl-benzyl)-benzamide] | 130 | 
CS(=O)(=O)N1CCc2c(c(-c3ccc(Cl)c(CNC(=O)c4ccc(Cl)cc4)c3)nn2CCCN2CCCC2)C1 [Example 86, 4-Chloro-N-{2-chloro-5-[5-methanesulfonyl-1-(3-pyrrolidin-1-yl-propyl)-4,5,6,7-tetrahydro-1H-pyrazolo[4,3-c]pyridin-3-yl]-benzyl}-benzamide] | 960 | 
CS(=O)(=O)N1CCc2c(c(-c3ccc(C(F)(F)F)c(CNC(=O)c4cc5ccccc5s4)c3)nn2CC(O)CN2CCC3(CCNC3=O)CC2)C1 (centres unmarked) [Example 157, Benzo[b]thiophene-2-carboxylic acid 5-{1-[2-hydroxy-3-(1-oxo-2,8-diaza-spiro[4.5]dec-8-yl)-propyl]-5-methanesulfonyl-4,5,6,7-tetrahydro-1H-pyrazolo[4,3-c]pyridin-3-yl}-2-trifluoromethyl-benzylamide] | 270 | 
CS(=O)(=O)N1CCc2c(c(-c3ccc(C(F)(F)F)c(CNC(=O)c4ccc(F)cc4)c3)nn2CC(O)CN2CCOCC2)C1 (centres unmarked) [Example 23, 4-Fluoro-N-{5-[1-(2-hydroxy-3-morpholin-4-yl-propyl)-5-methanesulfonyl-4,5,6,7-tetrahydro-1H-pyrazolo[4,3-c]pyridin-3-yl]-2-trifluoromethyl-benzyl}-benzamide] | 150 | 
CC(=O)NC1CCN(CC(O)Cn2nc(-c3ccc(Cl)c(CNC(=O)c4ccc(F)cc4)c3)c3c2CCN(S(C)(=O)=O)C3)CC1 (centres unmarked) [Example 13, N-(5-{1-[3-(4-Acetylamino-piperidin-1-yl)-2-hydroxy-propyl]-5-methanesulfonyl-4,5,6,7-tetrahydro-1H-pyrazolo[4,3-c]pyridin-3-yl}-2-chloro-benzyl)-4-fluoro-benzamide] | 40 | 
CS(=O)(=O)N1CCc2c(c(-c3ccc(C(F)(F)F)c(CNS(=O)(=O)c4ccccc4)c3)nn2CC(O)CN2CCCC2)C1 (centres unmarked) [Example 66, N-{5-[1-(2-Hydroxy-3-pyrrolidin-1-yl-propyl)-5-methanesulfonyl-4,5,6,7-tetrahydro-1H-pyrazolo[4,3-c]pyridin-3-yl]-2-trifluoromethyl-benzyl}-benzenesulfonamide] | 2900 | 
